Laboratory results reported in US10239873B2, “7-azaindole or 4,7-diazaindole derivatives as IKKϵ epsilon and TBK1 inhibitor and pharmaceutical composition comprising same” (GREEN CROSS CORPORATION, priority 2015, dated 2019).
Structures can show the parent of a compound that is named as a salt.

Legend:
[1] = molecular target: T1, IKKε (Homo sapiens, UniProt Q14164); experiment: ADP-Glo Kinase Assay, inhibition activity on IKKε; format: biochemical
T1 construct: purchased Promega and/or Invitrogen V4158; PR8031B; V3991 (not assigned to the two kinases)
T1 sequence (Q14164 1-716): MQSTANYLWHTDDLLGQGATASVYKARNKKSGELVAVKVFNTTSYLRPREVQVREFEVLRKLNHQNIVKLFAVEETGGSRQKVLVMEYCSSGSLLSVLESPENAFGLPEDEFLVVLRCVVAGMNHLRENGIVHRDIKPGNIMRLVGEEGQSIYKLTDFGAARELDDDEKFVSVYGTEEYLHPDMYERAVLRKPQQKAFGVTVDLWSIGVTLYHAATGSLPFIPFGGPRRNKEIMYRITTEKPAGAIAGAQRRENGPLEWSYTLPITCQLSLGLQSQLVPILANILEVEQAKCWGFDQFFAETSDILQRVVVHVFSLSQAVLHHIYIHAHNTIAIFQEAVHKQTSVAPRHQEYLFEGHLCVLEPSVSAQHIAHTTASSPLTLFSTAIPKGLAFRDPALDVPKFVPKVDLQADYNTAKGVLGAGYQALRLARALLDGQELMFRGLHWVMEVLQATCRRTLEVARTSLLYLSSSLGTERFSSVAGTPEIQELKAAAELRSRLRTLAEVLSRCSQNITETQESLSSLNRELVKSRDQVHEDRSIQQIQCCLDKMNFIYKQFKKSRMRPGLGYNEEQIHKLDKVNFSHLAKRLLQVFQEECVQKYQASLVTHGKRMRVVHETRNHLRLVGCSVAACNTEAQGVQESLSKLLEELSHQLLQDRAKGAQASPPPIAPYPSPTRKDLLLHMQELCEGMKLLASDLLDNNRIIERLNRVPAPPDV
Method: Inhibition activities on IKKϵ and TBK1 were evaluated using the compounds of Examples 1 to 250.
The inhibition activities on IKKϵ and TBK1 were measured by a luminometer, IKKϵ/TBK1 Kinase Enzyme System (Promega, Ca# V4158; Invitrogen, PR8031B, Promega, Ca# V3991) and ADP-Glo Kinase Assay using ADP-Glo™ Kinase Analysis Kit (Promega, Ca# V9101) and a kinase reaction buffer [40 mM Tris(pH 7.5), 20 mM MgCl2, 0.1 mg/mL BSA] in accordance with the manufacturer's protocol.

[2] = molecular target: T2, TBK1 (Homo sapiens, UniProt Q9UHD2); experiment: ADP-Glo Kinase Assay, inhibition activity on TBK1; format: biochemical
T2 construct: purchased Promega (Invitrogen is also named in the same bracket) V4158; PR8031B; V3991 (not assigned to the two kinases)
T2 sequence (Q9UHD2 1-729): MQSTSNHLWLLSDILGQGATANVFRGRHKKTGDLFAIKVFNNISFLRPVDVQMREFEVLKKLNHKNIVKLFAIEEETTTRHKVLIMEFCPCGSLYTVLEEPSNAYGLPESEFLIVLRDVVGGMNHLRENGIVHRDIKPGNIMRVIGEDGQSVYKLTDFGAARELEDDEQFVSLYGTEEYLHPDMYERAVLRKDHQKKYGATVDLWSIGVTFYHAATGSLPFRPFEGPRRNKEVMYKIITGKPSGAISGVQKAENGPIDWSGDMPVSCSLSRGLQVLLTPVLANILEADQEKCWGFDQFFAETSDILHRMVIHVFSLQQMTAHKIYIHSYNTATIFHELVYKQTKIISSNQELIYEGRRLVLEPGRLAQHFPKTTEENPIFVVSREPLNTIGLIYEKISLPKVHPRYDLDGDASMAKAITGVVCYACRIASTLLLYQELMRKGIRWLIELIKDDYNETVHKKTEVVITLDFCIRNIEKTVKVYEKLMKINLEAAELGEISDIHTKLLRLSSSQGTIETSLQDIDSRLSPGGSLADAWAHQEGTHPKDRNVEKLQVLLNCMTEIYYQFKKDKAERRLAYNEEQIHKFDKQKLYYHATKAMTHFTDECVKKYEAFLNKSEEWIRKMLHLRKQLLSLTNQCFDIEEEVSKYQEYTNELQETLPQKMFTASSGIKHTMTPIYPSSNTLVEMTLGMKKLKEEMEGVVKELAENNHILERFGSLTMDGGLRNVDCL
Outline: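 In 40 mM Tris pH 7.5 with 20 mM MgCl2 and 0.1 mg/mL BSA, each enzyme (IKKε or TBK1 kinase system) was run according to the manufacturer's protocol. ADP formed was detected by ADP-Glo luminescence.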

Compound | IC50 [1] [nM] | IC50 [2] [nM]
O=C(NC1CC1)N1CC=C(c2c[nH]c3ncc(-c4ccc(CN5CCNCC5)s4)cc23)CC1 [Example 45, N-cyclopropyl-4-(5-(5-(piperazin-1-ylmethyl)thiophen-2-yl)-1H-pyrrolo[2,3-b]pyridin-3-yl)-5,6-dihydropyridine-1(2H)-carboxamide dihydrochloride] | 24 | 3.3
CN1CCN(Cc2ccc(-c3cnc4[nH]cc(C5=CCN(C(=O)NC6CC6)CC5)c4c3)cc2)CC1 [Example 46, N-cyclopropyl-4-(5-(4-((4-methylpiperazin-1-yl)methyl)phenyl)-1H-pyrrolo[2,3-b]pyridin-3-yl)-5,6-dihydropyridine-1(2H)-carboxamide] | 25 | 14
CN1CCN(Cc2ccc(-c3cnc4[nH]cc(C5=CCN(C(=O)NC6CC6)CC5)c4c3)s2)CC1 [Example 47, N-cyclopropyl-4-(5-(5-((4-methylpiperazin-1-yl)methyl)thiophen-2-yl)-1H-pyrrolo[2,3-b]pyridin-3-yl)-5,6-dihydropyridine-1(2H)-carboxamide] | 12 | 3.6
O=C(NC1CC1)N1CC=C(c2c[nH]c3ncc(-c4ccc(CN5CCOCC5)s4)cc23)CC1 [Example 48, N-cyclopropyl-4-(5-(5-(morpholinomethyl)thiophen-2-yl)-1H-pyrrolo[2,3-b]pyridin-3-yl)-5,6-dihydropyridine-1(2H)-carboxamide] | 10 | 8.2
COc1ccc(-c2cnc3[nH]cc(C4=CCN(C(=O)NC5CCCC5)CC4)c3c2)cc1F [Example 50, N-cyclopentyl-4-(5-(3-fluoro-4-methoxyphenyl)-1H-pyrrolo[2,3-b]pyridin-3-yl)-5,6-dihydropyridine-1(2H)-carboxamide] | 410 | 330
CS(=O)(=O)c1cccc(-c2cnc3[nH]cc(C4=CCN(C(=O)NC5CCCC5)CC4)c3c2)c1 [Example 52, N-cyclopentyl-4-(5-(3-(methylsulfonyl)phenyl)-1H-pyrrolo[2,3-b]pyridin-3-yl)-5,6-dihydropyridine-1(2H)-carboxamide] | 48 | 23
CCS(=O)(=O)c1cccc(-c2cnc3[nH]cc(C4=CCN(C(=O)NC5CCCC5)CC4)c3c2)c1 [Example 54, N-cyclopentyl-4-(5-(3-(ethylsulfonyl)phenyl)-1H-pyrrolo[2,3-b]pyridin-3-yl)-3,6-dihydropyridine-1(2H)-carboxamide] | 84 | 32
CCCS(=O)(=O)c1ccc(-c2cnc3[nH]cc(C4=CCN(C(=O)NC5CCCC5)CC4)c3c2)cc1 [Example 55, N-cyclopentyl-4-(5-(4-(propylsulfonyl)phenyl)-1H-pyrrolo[2,3-b]pyridin-3-yl)-5,6-dihydropyridine-1(2H)-carboxamide] | 600 | 51
O=C(NC1CCCC1)N1CC=C(c2c[nH]c3ncc(-c4ccc(S(=O)(=O)C5CC5)cc4)cc23)CC1 [Example 56, N-cyclopentyl-4-(5-(4-(cyclopropylsulfonyl)phenyl)-1H-pyrrolo[2,3-b]pyridin-3-yl)-5,6-dihydropyridine-1(2H)-carboxamide] | 190 | 58
COc1ccc(-c2cnc3[nH]cc(C4=CCN(C(=O)NC5CCCC5)CC4)c3c2)cc1S(=O)(=O)N1CCOCC1 [Example 63, N-cyclopentyl-4-(5-(4-methoxy-3-(morpholinosulfonyl)phenyl)-1H-pyrrolo[2,3-b]pyridin-3-yl)-5,6-dihydropyridine-1(2H)-carboxamide] | 440 | 29
O=C(NC1CCCC1)N1CC=C(c2c[nH]c3ncc(-c4ccc(CN5CCOCC5)s4)cc23)CC1 [Example 72, N-cyclopentyl-4-(5-(5-(morpholinomethyl)thiophen-2-yl)-1H-pyrrolo[2,3-b]pyridin-3-yl)-5,6-dihydropyridine-1(2H)-carboxamide] | 38 | 28
CN1CCN(Cc2ccc(-c3cnc4[nH]cc(C5=CCN(C(=O)NC6COC6)CC5)c4c3)cc2)CC1 [Example 78, 4-(5-(4-((4-Methylpiperazin-1-yl)methyl)phenyl)-1H-pyrrolo[2,3-b]pyridin-3-yl)-N-(oxetan-3-yl)-5,6-dihydropyridine-1(2H)-carboxamide] | 55 | 15
CN1CCN(Cc2ccc(-c3cnc4[nH]cc(C5=CCN(C(=O)NC6COC6)CC5)c4c3)s2)CC1 [Example 79, 4-(5-(5-((4-Methylpiperazin-1-yl)methyl)thiophen-2-yl)-1H-pyrrolo[2,3-b]pyridin-3-yl)-N-(oxetan-3-yl)-5,6-dihydropyridine-1(2H)-carboxamide] | 28 | 320
O=C(NC1COC1)N1CC=C(c2c[nH]c3ncc(-c4ccc(CN5CCOCC5)s4)cc23)CC1 [Example 80, 4-(5-(5-(Morpholinomethyl)thiophen-2-yl)-1H-pyrrolo[2,3-b]pyridin-3-yl)-N-(oxetan-3-yl)-5,6-dihydropyridine-1(2H)-carboxamide] | 3.4 | 1.2
CC(C)NC(=O)N1CCC(c2c[nH]c3ncc(-c4ccc(CN5CCN(C)CC5)cc4)cc23)=CC1C (stereo not shown) [Example 86, N-isopropyl-2-methyl-4-(5-(4-((4-methylpiperazin-1-yl)methyl)phenyl)-1H-pyrrolo[2,3-b]pyridin-3-yl)-5,6-dihydropyridine-1(2H)-carboxamide] | 3.5 | 2.8
CC(C)NC(=O)N1CCC(c2c[nH]c3ncc(-c4ccc(CN5CCOCC5)s4)cc23)=CC1C (stereo not shown) [Example 87, N-isopropyl-2-methyl-4-(5-(5-(morpholinomethyl)thiophen-2-yl)-1H-pyrrolo[2,3-b]pyridin-3-yl)-5,6-dihydropyridine-1(2H)-carboxamide] | 1.5 | 1
CC(C)NC(=O)N1CCC(c2c[nH]c3ncc(-c4ccc(CN5CCN(C)CC5)s4)cc23)=CC1C (stereo not shown) [Example 88, N-isopropyl-2-methyl-4-(5-(5-((4-methylpiperazin-1-yl)methyl)thiophen-2-yl)-1H-pyrrolo[2,3-b]pyridin-3-yl)-5,6-dihydropyridine-1(2H)-carboxamide] | 3.2 | 0.8
CC(C)NC(=O)N1CCC(c2c[nH]c3ncc(-c4ccc(C(=O)N5CCN(C)CC5)cc4)cc23)=CC1C (stereo not shown) [Example 89, N-isopropyl-2-methyl-4-(5-(4-(4-methylpiperazine-1-carbonyl)phenyl)-1H-pyrrolo[2,3-b]pyridin-3-yl)-5,6-dihydropyridine-1(2H)-carboxamide] | 3.3 | 2.8
CC(C)NC(=O)N1CCC(c2c[nH]c3ncc(-c4ccc(CN5CCOCC5)cc4)cc23)=CC1C (stereo not shown) [Example 90, N-isopropyl-2-methyl-4-(5-(4-(morpholinomethyl)phenyl)-1H-pyrrolo[2,3-b]pyridin-3-yl)-5,6-dihydropyridine-1(2H)-carboxamide] | 5.5 | 5.2
CCC(CC)NC(=O)N1CCC(c2c[nH]c3ncc(-c4ccc(CN5CCN(C)CC5)s4)cc23)=CC1C (stereo not shown) [Example 91, 6-Methyl-4-(5-(5-((4-methylpiperazin-1-yl)methyl)thiophen-2-yl)-1H-pyrrolo[2,3-b]pyridin-3-yl)-N-(pentan-3-yl)-3,6-dihydropyridine-1(2H)-carboxamide] | 180 | 46
